Here are results for three molecules from patent US7972793B2, “Methods and compositions for the treatment of psychotic disorders through the identification of the SULT4A1-1 haplotype” (Suregene, LLC, priority 2009, dated 2011).

Like-named read-outs stand apart in the source and are kept apart here. Marks after values point to notes of the source that are not given here.

Test [1] deals with CATIE African American schizophrenia patients. The test is described as follows: CATIE drug response: change in total PANSS (LOCF), segmented by SULT4A1-1 status, African Americans. Format: in vivo, human. The protocol:
The design of the CATIE study has been described in detail by others (Lieberman et al., 2005; Stroup et al., 2003). […] A total of 738 subjects consented to provide DNA for genetic study. […] Retrospective genetic analyses, judged to be exempt from human studies requirements by an IRB, were conducted in the current study. All tested patients were studied using well established clinical endpoints comparing baseline, intermediate, and last observation carried forward (LOCF) for the PANSS scores using CATIE data. […] To remove time on drug as a variable for the CATIE trial, analysis was limited to only those patients who were randomized to a different drug following the initial washout period (drug switchers).

Test [2] relates to CATIE Caucasian schizophrenia patients. The test is described as follows: CATIE Phase 1 drug response: change in total PANSS (LOCF), drug switchers, segmented by SULT4A1-1 status. The conditions noted are these: for ≦−20% (number of individuals with this percent change in total PANSS; responders) / ≧−20% (number of individuals with this percent change in total PANSS; non-responders): CATIE Caucasians, LOCF; for Non Responder (number) / Responder (number): Table 16, 20% decrease in PANSS threshold, SULT4A1-1 positive group (sign not given). Format: in vivo, human. The text has this:
There are several different metrics for quantifying response in clinical trials of antipsychotic medications. The most commonly used psychometric instrument is the Positive and Negative Syndrome Scale (PANSS), a 30-item semi-quantitative instrument scored by clinical professionals (Kay et al., 1987). The greater the decrease in PANSS score, the better the clinical response. The most direct measure of clinical response is absolute change in PANSS score. In addition to absolute change, the improvement is often reported as a percentage change from baseline PANSS score.
A decrease of at least 20% in total PANSS is one commonly used threshold for response (Leucht et al., 2009).
The design of the CATIE study has been described in detail by others (Lieberman et al., 2005; Stroup et al., 2003). […] A total of 738 subjects consented to provide DNA for genetic study. […] Retrospective genetic analyses, judged to be exempt from human studies requirements by an IRB, were conducted in the current study.
All tested patients were studied using well established clinical endpoints comparing baseline, intermediate, and last observation carried forward (LOCF) for the PANSS scores using CATIE data. LOCF analysis is a commonly used clinical endpoint for clinical trials for neuropsychiatric drugs, with changes in PANSS scores of between negative 20% and negative 30% used as typical endpoints to indicate clinically significant response (Leucht et al., 2009). To remove time on drug as a variable for the CATIE trial, analysis was limited to only those patients who were randomized to a different drug following the initial washout period (drug switchers).
As mentioned previously, the mean change in absolute or percent PANSS provides an important measure of efficacy in patients undergoing antipsychotic treatments. Indeed, many pivotal trials in the psychosis field used absolute and/or percentage change in PANSS Score as the primary endpoint (Leucht et al., 2009). […] Therefore, in addition to examining a categorical definition of clinically significant response, the inventors determined the impact of segmentation by SULT4A1-1 status on the quantitative measure of clinical improvement—delta PANSS.

In the next test the test system is CATIE Caucasian subjects. The test is described as follows: Rate of hospitalization due to exacerbation of psychosis in CATIE by SULT4A1-1 status. Format: in vivo, human. The conditions noted are these: CATIE Phases 1, 2 and/or 3. An excerpt:
For this analysis, the inventors assigned a dichotomous value (positive or negative) for hospitalization status to subjects in each phase of the trial based on only the first hospitalization event for a given patient in that phase.

The subject of test [3] is CATIE Caucasian schizophrenia patients. The test is described as follows: Time to discontinuation for all causes in the CATIE study. Format: in vivo, human. An excerpt: The primary endpoint for the CATIE study was time to discontinuation for all causes (Lieberman et al., 2005). Thus the inventors evaluated the effect of SULT41-1 status on this important parameter.
For test [4], the system named is CATIE Phase I non-responders. The conditions noted are these: CATIE Phase II, LOCF; for Responders (number): decrease PANSS ≧ 20%.
Test [5] deals with patients, unsegmented populations. The settings on record: first generation antipsychotics; Davis et al. (2003); cited from earlier work.
Test [6] has the same test system. The conditions noted are these: Meta-analysis, Leucht et al. (2009); cited from earlier work.
Another test has as its system CATIE patients. The test is described as follows: Kaplan-Meier survival (no hospitalization event) analysis, SULT4A1-1 negative vs positive. Format: in vivo, human. The settings on record: FIG. 8. As to the method:
A Kaplan-Meier survival analysis was performed to determine whether there was a difference between the survival (hospitalization) rates for the SULT4A1-1 negative and SULT4A1-1 positive patient populations treated with each of the atypical antipsychotics. Survival plots model the fraction of the population that survived (i.e., no hospitalization event) as a function of time.

For test [7], the system named is patients, populations not segmented by SULT4A1-1 status. The conditions noted are these: meta-analysis, Leucht et al. (2009); negative = greater reduction in PANSS; cited from earlier work.

With `OCCN1CCN(CCCN2c3ccccc3Sc3ccc(Cl)cc32)CC1` [Perphenazine], the “≦−20% (number of individuals; responders)” value in [1] (SULT4A1-1 Negative) turned out to be 10; in test [1] (SULT4A1-1 Positive) it was 0. For the same molecule, the results for the “≧−20% (number of individuals; non-responders)” value in test [1] (SULT4A1-1 Negative) and in test [1] (SULT4A1-1 Positive) were 27 and 2, respectively. In addition, the “≦−20% (number of individuals with this percent change in total PANSS; responders)” value in test [2] (SULT4A1-1 Negative) was determined as 16; in test [2] (SULT4A1-1 Positive) it was 5. Moreover, the “≧−20% (number of individuals with this percent change in total PANSS; non-responders)” value in test [2] (SULT4A1-1 Negative) is listed as 47; in [2] (SULT4A1-1 Positive) it was 9. Further, the “Non Responder (number)” value in test [2] was 9. In [2], the “Responder (number)” value was 5. In addition, the “HOSP (number of subjects hospitalized)” value with CATIE Caucasian subjects (SULT4A1-1 Positive) is given as 1; in the test with CATIE Caucasian subjects (SULT4A1-1 negative), 9; in the test with CATIE Caucasian subjects (Unsegmented), 10. Further, in test [3] (SULT4A1-1 Positive), the “Time to discontinuation, mean time in months” value (from here on “Time to discontinuation”) is 7.6** Months.
As to `Cc1nc2n(c(=O)c1CCN1CCC(c3noc4cc(F)ccc34)CC1)CCCC2` [Risperidone], the “Nonresponders (number)” value in test [4] (SULT4A1-1 Negative) is reported as 8; in test [4] (SULT4A1-1 Positive), 1. Further, the “Responders (number)” value in [4] (SULT4A1-1 Negative) was 4; in test [4] (SULT4A1-1 Positive), 0. Besides, the “% Responders” value in test [4] (SULT4A1-1 Positive) worked out at 0%. Moreover, the “Effect Size vs. FGA” value in test [5] is given as −0.25. For the same molecule, the “≦−20% (number of individuals; responders)” value in test [1] (SULT4A1-1 Negative) amounted to 7; in [1] (SULT4A1-1 Positive), 3. Besides, the “≧−20% (number of individuals; non-responders)” value is listed as 34 in [1] (SULT4A1-1 Negative) and 2 in [1] (SULT4A1-1 Positive). The Responders in [1] (SULT4A1-1 Positive, change in total PANSS ≦−20%) is on record as 60%. Moreover, the “Mean Difference in Total PANSS Score, Olanzapine vs. labelled drug” value in test [6] is −1.9. Besides, the “Difference between survival (no hospitalization) rates of SULT4A1-1 negative and SULT4A1-1 positive patients” value in the test on CATIE patients is given as “not statistically significant”. Also, the “HOSP (number of subjects hospitalized)” value in the test with CATIE Caucasian subjects (SULT4A1-1 Positive) came out at 4; in the test with CATIE Caucasian subjects (SULT4A1-1 negative), 16; with CATIE Caucasian subjects (Unsegmented), 20. Besides, the figures for the “HOSP (rate of hospitalization)” value with CATIE Caucasian subjects (SULT4A1-1 Positive), with CATIE Caucasian subjects (SULT4A1-1 negative) and in the test with CATIE Caucasian subjects (Unsegmented) were “(11.1%)”, “(13%)” and “(12.6%)”, respectively. Moreover, the “Time to discontinuation” value in test [3] (SULT4A1-1 Negative) is 11.3 Months; in test [3] (SULT4A1-1 Positive) it was 8.0*** Months. The “Effect Size vs. Placebo” value in test [7] was −0.59.
In the case of `O=C1Cc2cc(CCN3CCN(c4nsc5ccccc45)CC3)c(Cl)cc2N1` [Ziprasidone], the “Effect Size vs. FGA” value in test [5] is reported as −0.04. The “≦−20% (number of individuals; responders)” value in [1] (SULT4A1-1 Negative) turned out to be 4; in test [1] (SULT4A1-1 Positive), 0. In addition, the “≧−20% (number of individuals; non-responders)” value in test [1] (SULT4A1-1 Negative) is 22; in test [1] (SULT4A1-1 Positive), 3. Moreover, the results for the “Mean Difference in Total PANSS Score, Olanzapine vs. labelled drug” value in [6], in test [2] (CATIE SULT4A1-1 −) and in test [2] (CATIE unsegmented) were −8.3, −2.1 and −4.9, respectively. Further, the “Difference between survival (no hospitalization) rates of SULT4A1-1 negative and SULT4A1-1 positive patients” value in the test on CATIE patients is given as “not statistically significant”. The “≦−20% (number of individuals with this percent change in total PANSS; responders)” value in test [2] (SULT4A1-1 Negative) stood at 6; in test [2] (SULT4A1-1 Positive) it was 3. The “≧−20% (number of individuals with this percent change in total PANSS; non-responders)” value in test [2] (SULT4A1-1 Negative) was 32; in test [2] (SULT4A1-1 Positive), 7. The “Non Responder (number)” value in test [2] is recorded as 7. Also, the “Responder (number)” value in test [2] worked out at 3. Also, the results for the “HOSP (number of subjects hospitalized)” value with CATIE Caucasian subjects (SULT4A1-1 Positive), in the test with CATIE Caucasian subjects (SULT4A1-1 negative) and with CATIE Caucasian subjects (Unsegmented) were 2, 11 and 13, respectively. The “Time to discontinuation” value in test [3] (SULT4A1-1 Negative) is 8.2*** Months. Besides, the “Effect Size vs. Placebo” value in [7] is reported as −0.48.
